Measured values: patent US12421276B2 (priority 2016, dated 2025)
“And” between values parts separate entries of the source, which are not always exact repeats. Identical values can stand only once. Like-named read-outs stand apart in the source and are kept apart here.

Legend:
[1] = Plasma stability study, rat plasma; format: in vitro ADME; conditions: Rat plasma, 1 μM, 37° C.
In short: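 Compounds (1 μM, from 0.3 mM DMSO stock) incubated at 37° C in K2 EDTA plasma, quenched at time points with acetonitrile/methanol/formic acid plus internal standard, and analysed by LC/MS/MS. Disappearance measured relative to 0-min control; t½ derived from elimination rate constant of semi-log % remaining versus time regression.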

[2] = Metabolic stability in simulated intestinal fluid (SIF), pH 6.8, with or without pancreatin; format: in vitro ADME; conditions: +Pancreatin (1%), 5 μM, 37° C.
In short: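 Compounds at 5 μM incubated at 37 °C in freshly made SIF pH 6.8 (NaOH/NaH2PO4/NaCl), with or without 1% pancreatin. Remaining parent measured by LC/MS/MS against 0-min control; t½ derived from elimination rate constant (−slope) of semi-log % remaining vs time.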

[3] = format: in vivo, rat
In short: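 Male SD rats (n=4/group) dosed PO at 13.2 or 14.2 mg/kg (10 mL/kg) and housed in metabolic cages with daily urine collection. EDTA blood sampled predose to 24 h post-dose, centrifuged at 4 °C to plasma, analysed by LC-MS.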

Caco-2 cells = test: Caco-2 permeability study with or without P-gp inhibitor GF120918; conditions: for Caco-2 Cells Permeability Recovery Rate: 1 hr, pH 7.4
[4] = Rat, PO, 10 mg/kg equiv., n = 4, analyte: Parent (BASE STRUCTURE)
[5] = Rat, PO, 10 mg/kg equiv., n = 4, analyte: Prodrug
[6] = rat, dosed as prodrug, 10 mg/kg equivalent of Base Structure, analyte Parent (Base Structure), Average
[7] = rat, dosed as prodrug, 10 mg/kg equivalent of Base Structure, analyte Parent (Base Structure), Combined (average ± std. dev.)
[8] = rat, dosed as prodrug, 10 mg/kg equivalent of Base Structure, analyte Parent (Base Structure), individual animals, 10 mg/kg
[9] = rat, dosed as prodrug, 10 mg/kg equivalent of Base Structure, analyte Prodrug, Average
[10] = rat, dosed as prodrug, 10 mg/kg equivalent of Base Structure, analyte Prodrug, Combined (average ± std. dev.)
[11] = rat, dosed as prodrug, 10 mg/kg equivalent of Base Structure, analyte Prodrug, individual animals
[12] = rat, dosed as prodrug, 10 mg/kg equivalent of Base Structure, analyte Prodrug, individual animals, 10 mg/kg

Compound: CCCCCC(=O)NC(Cc1ccc(OC(=O)NCCN(C)C)cc1)C(=O)NC(C(=O)NCCCCCC(N)=O)C(C)CC (centres unmarked) [Compound A21]
- Plasma Stability Half-Life [1]: 1.16 h
- Plasma Stability (% Parent Remaining) 0 min ([1]; 0 min): 100%
- Plasma Stability (% Parent Remaining) 60 min ([1]; 60 min): 61%
- Plasma Stability (% Parent Remaining) 120 min ([1]; 120 min): 34%
- Plasma Stability (% Parent Remaining) 240 min ([1]; 240 min): 9%
- SIF Stability (pH 6.8) Half-Life (min) [2]: 3006.4 min
- SIF Stability (pH 6.8) 0 min ([2]; 0 min): 100%
- SIF Stability (pH 6.8) 60 min ([2]; 60 min): 95%
- SIF Stability (pH 6.8) 120 min ([2]; 120 min): 97%
- SIF Stability (pH 6.8) 240 min ([2]; 240 min): 93%
- AUC0-24 [3, 4]: 7.4 ± 0.9 ng·h/mL
- AUC0-inf [3, 4]: 47.8 ± 1 ng·h/mL
- Cmax [3, 4]: 0.6 ± 0.1 ng/mL
- Tmax [3, 4]: 0.9 ± 0.8 h
- half-life [3, 4]: 81.7 ± 5.7 h
- AUC0-24 [3, 5]: 2.8 ± 1.9 ng·h/mL
- AUC0-inf [3, 5]: 6.46 ng·h/mL
- Cmax [3, 5]: 1.6 ± 0.5 ng/mL
- Tmax [3, 5]: 0.8 ± 0.4 h
- half-life [3, 5]: 1.32 h
- AUC 0-inf_obs [3, 6]: 47.78 ng·h/mL
- AUC 0-t [3, 6]: 7.45 ng·h/mL
- AUMC 0-inf_obs [3, 6]: 5777.4305 ng/ml * h^2
- Cl/F_obs [3, 6]: 0.2094 (mg/kg)/(ng/ml)/h
- Cmax [3, 6]: 0.62 ng/mL
- Lambda_z [3, 6]: 0.008507 h⁻¹
- MRT 0-inf_obs [3, 6]: 120.8 h
- Tlag [3, 6]: 0 h
- Tmax [3, 6]: 0.875 h
- Vz/F_obs [3, 6]: 24.65 (mg/kg)/(ng/ml)
- t1/2 [3, 6]: 81.6756 h
- AUC 0-inf_obs [3, 7]: 47.8 ± 1 ng·h/mL
- AUC 0-t [3, 7]: 7.4 ± 0.9 ng·h/mL
- AUMC 0-inf_obs [3, 7]: 5777.4 ± 551.6 ng/ml * h^2
- Cl/F_obs [3, 7]: 0.2 ± 0 (mg/kg)/(ng/ml)/h
- Cmax [3, 7]: 0.6 ± 0.1 ng/mL
- Lambda_z [3, 7]: 0 ± 0 h⁻¹
- MRT 0-inf_obs [3, 7]: 120.8 ± 9.1 h
- Tlag [3, 7]: 0 ± 0 h
- Tmax [3, 7]: 0.9 ± 0.8 h
- Vz/F_obs [3, 7]: 24.7 ± 1.2 (mg/kg)/(ng/ml)
- t1/2 [3, 7]: 81.7 ± 5.7 h
- Tlag ([3]; rat, dosed as prodrug, 10 mg/kg equivalent of Base Structure, analyte Parent (Base Structure), individual animals): 0 h
- AUC 0-inf_obs [3, 8]: 48.45 ng·h/mL and 47.1 ng·h/mL
- AUC 0-t [3, 8]: 7.285 ng·h/mL and 8.222 ng·h/mL and 6.27 ng·h/mL and 8.022 ng·h/mL
- AUMC 0-inf_obs [3, 8]: 6167.4557 ng/ml * h^2 and 5387.4053 ng/ml * h^2
- Cl/F_obs [3, 8]: 0.2064 (mg/kg)/(ng/ml)/h and 0.2123 (mg/kg)/(ng/ml)/h
- Cmax [3, 8]: 0.744 ng/mL and 0.604 ng/mL and 0.555 ng/mL and 0.577 ng/mL
- Lambda_z [3, 8]: 0.00809 h⁻¹ and 0.008925 h⁻¹
- MRT 0-inf_obs [3, 8]: 127.3 h and 114.4 h
- Tmax [3, 8]: 0.25 h (2×) and 1 h and 2 h
- Vz/F_obs [3, 8]: 25.51 (mg/kg)/(ng/ml) and 23.79 (mg/kg)/(ng/ml)
- t1/2 [3, 8]: 85.68 h and 77.67 h
- AUC 0-inf_obs [3, 9]: 6.459 ng·h/mL
- AUC 0-t [3, 9]: 2.846 ng·h/mL
- AUMC 0-inf_obs [3, 9]: 13.69 ng/ml * h^2
- Cl/F_obs [3, 9]: 1.548 (mg/kg)/(ng/ml)/h
- Cmax [3, 9]: 1.615 ng/mL
- Lambda_z [3, 9]: 0.5257 h⁻¹
- MRT 0-inf_obs [3, 9]: 2.119 h
- Tlag [3, 9]: 0 h
- Tmax [3, 9]: 0.8125 h
- Vz/F_obs [3, 9]: 2.945 (mg/kg)/(ng/ml)
- t1/2 [3, 9]: 1.319 h
- AUC 0-inf_obs [3, 10]: 6.459 ng·h/mL
- AUC 0-t [3, 10]: 2.8 ± 1.9 ng·h/mL
- AUMC 0-inf_obs [3, 10]: 13.69 ng/ml * h^2
- Cl/F_obs [3, 10]: 1.548 (mg/kg)/(ng/ml)/h
- Cmax [3, 10]: 1.6 ± 0.5 ng/mL
- Lambda_z [3, 10]: 0.5257 h⁻¹
- MRT 0-inf_obs [3, 10]: 2.119 h
- Tlag [3, 10]: 0 ± 0 h
- Tmax [3, 10]: 0.8 ± 0.4 h
- Vz/F_obs [3, 10]: 2.945 (mg/kg)/(ng/ml)
- t1/2 [3, 10]: 1.319 h
- AUC 0-inf_obs [3, 11]: 6.459 ng·h/mL
- AUMC 0-inf_obs [3, 11]: 13.69 ng/ml * h^2
- Cl/F_obs [3, 11]: 1.548 (mg/kg)/(ng/ml)/h
- Lambda_z [3, 11]: 0.5257 h⁻¹
- MRT 0-inf_obs [3, 11]: 2.119 h
- Tlag [3, 11]: 0 h
- Vz/F_obs [3, 11]: 2.945 (mg/kg)/(ng/ml)
- t1/2 [3, 11]: 1.319 h
- AUC 0-t [3, 12]: 5.619 ng·h/mL and 2.381 ng·h/mL and 1.498 ng·h/mL and 1.885 ng·h/mL
- Cmax [3, 12]: 2.18 ng/mL and 1.89 ng/mL and 1.01 ng/mL and 1.38 ng/mL
- Tmax [3, 12]: 0.25 h and 1 h (3×)
- Abs. Quotient (Caco-2 cells; (Papp A-B with inhibitor − without inhibitor)/Papp A-B with inhibitor): 0.50
- Caco-2 Cells Permeability Recovery Rate (Caco-2 cells; +GF120918 (10 μM), 10 μM compound): 84%
- Caco-2 Cells Permeability Recovery Rate (Caco-2 cells; −GF120918, 10 μM compound): 84%
